Measurements as given in patent US9963467B2, “Boronic acid derivatives and therapeutic uses thereof” (Rempex Pharmaceuticals, Inc., priority 2014, dated 2018).

What was measured:
[1] = test system: KP1010 (SHV-12); test: Tigemonam potentiation (MPC@4), KP1010; format: cell-based
[2] = test system: ec302 (TEM-10); test: Aztreonam potentiation (MPC@4), ec302; format: cell-based; settings: BLI with aztreonam at 4 μg/mL
[3] = test system: KP1005 (CTX-M-14); test: Tigemonam potentiation (MPC@4), KP1005; format: cell-based; settings: BLI with tigemonam at 4 μg/mL
[4] = biological target: OXA-48 (Klebsiella pneumoniae, UniProt Q6XEC0); test: Ki, nitrocefin cleavage by purified enzyme, OXA-48; format: biochemical; settings: nitrocefin reporter substrate; read-out: Ki (OXA-48, NCF)
Method: (§1) Purified enzymes were mixed with various concentrations of inhibitors in reaction buffer and incubated for 10 min at room temperature. Nitrocefin was added and substrate cleavage profiles were recorded at 490 nm every 10 sec for 10 min.

[5] = test system: ec308 (SHV-5); test: Tigemonam potentiation (MPC@4), ec308; format: cell-based
[6] = biological target: P99 (Enterobacter cloacae, UniProt P05364); test: Ki, nitrocefin cleavage by purified enzyme, P99; format: biochemical; settings: nitrocefin reporter substrate; read-out: Ki (P99, NCF)
Method: as §1

[7] = Monomer content of pH adjusted aqueous solutions (LC-UV); format: physicochemical; settings: pH adjusted to 7.6 to 8, LC-UV
Method: Boronic acid containing compounds are known to undergo oligomerization. The presence of oligomers can greatly complicate drug development, as they represent new chemical species whose content must be controlled and qualified by testing in toxoicology studies. The monomer content of compounds was evaluated by adjusting aqueous solutions to physiological pH at various concentrations. The monomer content of pH adjusted solutions was measured using LC-UV. Test compounds were weighed out into a 1.5 mL Eppendorf tube. A solution of water was prepared in 1.00 mg/mL, 10.0 mg/mL or 100 mg/mL concentrations of the compound based on active fraction. A volume 20 uL was subtracted to allow room for addition of acid or base to adjust pH. The solution pH was measured. The pH was then adjusted through addition of acid or base as necessary until the reading was in the 7.6 to 8 range. A final pH measurement was made after ensuring all the compound was in solution. The solution was injected onto LC-UV in 0.1 uL to 5 uL volume within less than half an hour after the time the sample was prepared. Elution was done using 0.1% TFA in water for mobile phase A and 0.085% TFA in methanol for mobile phase B on an Excel ACE 5 Super C18 2.1×100 mm column at 0.6 ml/min flow rate with 9 min gradient, 3.9 minute hold at 90% B and 18 minute run time. The absorption was measured at 220, 254 and 300 nm with a 4 nm bandwidth.

[8] = test system: EC1010 (CMY-6); test: Tigemonam potentiation (MPC@4), EC1010; format: cell-based; settings: BLI with tigemonam at 4 μg/mL
[9] = test system: ECL1002; test: Tigemonam potentiation (MPC@4), ECL1002; format: cell-based; settings: BLI with tigemonam at 4 μg/mL
[10] = biological target: CTX-M-14 (Escherichia coli, UniProt Q9L5C7); test: Ki, nitrocefin cleavage by purified enzyme, CTX-M-14; format: biochemical; settings: nitrocefin reporter substrate; read-out: Ki (CTX-M-14, NCF)
Method: as §1

[11] = biological target: SHV-12 (Klebsiella pneumoniae, UniProt P0AD64, E235K/G234S/L31Q); test: Ki, nitrocefin cleavage by purified enzyme, SHV-12; format: biochemical; settings: nitrocefin reporter substrate; read-out: Ki (SHV-12, NCF)
Method: as §1

[12] = biological target: Pa AmpC (Pseudomonas aeruginosa, UniProt P24735); test: Ki, nitrocefin cleavage by purified enzyme, Pa AmpC; format: biochemical; settings: nitrocefin reporter substrate; read-out: Ki (Pa AmpC, NCF)
Method: Ki values of inhibition of purified class A, C and D enzymes were determined spectrophotometrically using nitrocefin as reporter substrate. Purified enzymes were mixed with various concentrations of inhibitors in reaction buffer and incubated for 10 min at room temperature. Nitrocefin was added and substrate cleavage profiles were recorded at 490 nm every 10 sec for 10 min. These experiments confirmed that the described compounds are inhibitors with a broad-spectrum of activity towards various β-lactamases.

[13] = test system: KP1009 (CTX-M-15); test: Tigemonam potentiation (MPC@4), KP1009; format: cell-based; settings: BLI with tigemonam at 4 μg/mL
[14] = test system: KP1086 (OXA-48); test: Biapenem potentiation (MPC@1), KP1086; settings: BLI with biapenem at 1 μg/mL
[15] = test system: KP1004 (KPC-2); test: Biapenem potentiation (MPC@1), KP1004; settings: BLI with biapenem at 1 μg/mL
[16] = test system: ec302 (TEM-10); test: Tigemonam potentiation (MPC@4), ec302; format: cell-based
[17] = biological target: KPC-2 (Klebsiella pneumoniae, UniProt Q9F663); test: Ki, nitrocefin cleavage by purified enzyme, KPC-2; format: biochemical; settings: nitrocefin reporter substrate; read-out: Ki (KPC-2, NCF)
Method: as §1

[18] = test system: ECL1002; test: Aztreonam potentiation (MPC@4), ECL1002; format: cell-based; settings: BLI with aztreonam at 4 μg/mL
[19] = test system: KP1004 (KPC-2); test: Aztreonam potentiation (MPC@4), KP1004; format: cell-based; settings: BLI with aztreonam at 4 μg/mL
[20] = test system: EC1010 (CMY-6); test: organism not typed; format: cell-based

KPC-2, sequence (Q9F663 25-293, looked up, species assumed): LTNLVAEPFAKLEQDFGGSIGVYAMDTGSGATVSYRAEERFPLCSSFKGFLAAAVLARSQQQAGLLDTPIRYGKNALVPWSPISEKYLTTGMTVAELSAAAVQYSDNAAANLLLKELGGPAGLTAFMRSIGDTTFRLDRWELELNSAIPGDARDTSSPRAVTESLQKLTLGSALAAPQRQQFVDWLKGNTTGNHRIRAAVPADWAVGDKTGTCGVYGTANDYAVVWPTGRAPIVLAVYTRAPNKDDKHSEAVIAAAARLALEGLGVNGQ
CTX-M-14, sequence (Q9L5C7 29-291): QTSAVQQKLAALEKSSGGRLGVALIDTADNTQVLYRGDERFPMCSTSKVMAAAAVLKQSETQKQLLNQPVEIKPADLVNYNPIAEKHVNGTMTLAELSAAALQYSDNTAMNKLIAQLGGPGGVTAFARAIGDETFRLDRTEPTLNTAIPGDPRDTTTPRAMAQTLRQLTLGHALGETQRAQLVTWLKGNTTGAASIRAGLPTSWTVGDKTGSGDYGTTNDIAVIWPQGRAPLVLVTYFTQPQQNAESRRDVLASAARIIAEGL
Pa AmpC, sequence (P24735 27-397): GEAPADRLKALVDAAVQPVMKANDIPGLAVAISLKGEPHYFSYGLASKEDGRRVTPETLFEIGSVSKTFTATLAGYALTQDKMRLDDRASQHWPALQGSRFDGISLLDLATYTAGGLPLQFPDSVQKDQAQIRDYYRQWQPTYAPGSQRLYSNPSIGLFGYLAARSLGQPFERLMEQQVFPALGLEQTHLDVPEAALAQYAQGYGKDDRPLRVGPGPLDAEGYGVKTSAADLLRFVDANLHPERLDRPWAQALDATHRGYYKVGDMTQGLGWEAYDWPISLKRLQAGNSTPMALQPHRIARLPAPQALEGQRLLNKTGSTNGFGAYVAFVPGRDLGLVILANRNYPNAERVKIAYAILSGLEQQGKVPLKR
P99, sequence (P05364 21-381): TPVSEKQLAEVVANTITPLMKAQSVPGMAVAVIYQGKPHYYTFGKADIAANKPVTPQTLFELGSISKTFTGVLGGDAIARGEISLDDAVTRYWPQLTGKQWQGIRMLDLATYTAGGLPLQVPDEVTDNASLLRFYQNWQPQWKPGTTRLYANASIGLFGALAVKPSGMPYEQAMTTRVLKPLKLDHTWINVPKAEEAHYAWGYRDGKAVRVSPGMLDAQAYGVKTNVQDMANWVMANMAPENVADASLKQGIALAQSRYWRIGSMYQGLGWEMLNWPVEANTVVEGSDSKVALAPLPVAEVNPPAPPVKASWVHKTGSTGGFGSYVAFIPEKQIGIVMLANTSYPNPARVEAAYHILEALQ
SHV-12, sequence (P0AD64 22-286 L31Q/G234S/E235K): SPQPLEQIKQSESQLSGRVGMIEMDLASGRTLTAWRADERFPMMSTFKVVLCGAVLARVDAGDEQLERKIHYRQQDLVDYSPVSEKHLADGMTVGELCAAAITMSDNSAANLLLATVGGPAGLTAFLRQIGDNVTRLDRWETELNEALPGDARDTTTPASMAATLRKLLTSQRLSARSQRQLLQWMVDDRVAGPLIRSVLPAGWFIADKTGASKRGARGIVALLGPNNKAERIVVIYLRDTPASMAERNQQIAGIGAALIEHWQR
OXA-48, sequence (Q6XEC0 23-265, looked up, species assumed): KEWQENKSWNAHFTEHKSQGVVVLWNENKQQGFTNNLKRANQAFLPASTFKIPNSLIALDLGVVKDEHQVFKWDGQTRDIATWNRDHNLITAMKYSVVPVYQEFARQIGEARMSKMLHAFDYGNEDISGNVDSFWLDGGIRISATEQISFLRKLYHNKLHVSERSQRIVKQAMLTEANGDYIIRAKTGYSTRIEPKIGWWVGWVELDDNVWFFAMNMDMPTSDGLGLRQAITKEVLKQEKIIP

Compound | TIG MPC4 SHV-12 KP1010 [1] | AZT MPC4 TEM-10 ec302 [2] | TIG MPC4 CTX-M-14 KP1005 [3] | TIG MPC4 SHV-5 ec308 [5] | Ki [6] [nM] | TIG MPC4 CMY-6 EC1010 [8] | TIG MPC4 ECL1002 [9] | Ki [10] [nM] | Ki [11] [nM] | Ki [12] [nM] | TIG MPC4 CTX-M-15 KP1009 [13] | BPM MPC1 OXA-48 KP1086 [14] | BPM MPC1 KP1004 KPC-2 [15] | TIG MPC4 TEM-10 ec302 [16] | Ki [17] [nM] | other results
COc1ccc2c(c1C(=O)O)OB(O)[C@@H](NC(=O)CSC)C2 [Compound 12, (R)-2-hydroxy-7-methoxy-3-(2-(methylthio)acetamido)-3,4-dihydro-2H-benzo[e][1,2]oxaborinine-8-carboxylic acid] | X (key: X: MIC of less than 1 μg/mL; Y: MIC of 1 μg/mL to 10 μg/mL; Z: MIC of greater than 10 μg/mL) | X (MIC of less than 1 ng/mL) | X (MIC of less than 1 μg/mL) | X (key: X: MIC of less than 1 μg/mL; Y: MIC of 1 μg/mL to 10 μg/mL; Z: MIC of greater than 10 μg/mL) | > 10 | X (MIC of less than 1 μg/mL) | X (MIC of less than 1 μg/mL) | < 1 | < 1 | > 10 | X (MIC of less than 1 μg/mL) | Y (MIC of 1 μg/mL to 10 μg/mL) | X (MIC of less than 1 μg/mL) | Y (key: X: MIC of less than 1 ng/mL; Y: MIC of 1 μg/mL to 10 μg/mL; Z: MIC of greater than 10 μg/mL) | > 10 | Ki [4]: < 1 nM; % Monomer in 1 mg/mL salt solution ([7]; 1 mg/mL aqueous salt solution): 98.2%; % Monomer in 10 mg/mL salt solution ([7]; 10 mg/mL aqueous salt solution): 95.5%; % Monomer in 100 mg/mL salt solution ([7]; 100 mg/mL aqueous salt solution): 96.5%
CSCC(=O)N[C@H]1Cc2ccc(SCC(N)=O)c(C(=O)O)c2OB1O [Compound 22, (R)-7-(2-amino-2-oxoethylthio)-2-hydroxy-3-(2-(methylthio)acetamido)-3,4-dihydro-2H-benzo[e][1,2]oxaborinine-8-carboxylic acid] | X (key: X: MIC of less than 1 μg/mL; Y: MIC of 1 μg/mL to 10 μg/mL; Z: MIC of greater than 10 μg/mL) | Y (MIC of 1 μg/mL to 10 μg/mL) | X (MIC of less than 1 μg/mL) | X (key: X: MIC of less than 1 μg/mL; Y: MIC of 1 μg/mL to 10 μg/mL; Z: MIC of greater than 10 μg/mL) | > 10 | X (MIC of less than 1 μg/mL) | Y (MIC of 1 μg/mL to 10 μg/mL) | < 1 | < 1 | > 10 | X (MIC of less than 1 μg/mL) | Z (MIC of greater than 10 μg/mL) | X (MIC of less than 1 μg/mL) | Y (key: X: MIC of less than 1 ng/mL; Y: MIC of 1 μg/mL to 10 μg/mL; Z: MIC of greater than 10 μg/mL) | > 10 | AZT MPC4 ECL1002 [18]: Y (MIC of 1 μg/mL to 10 μg/mL); AZT MPC4 KPC-2 KP1004 [19]: Y (MIC of 1 μg/mL to 10 μg/mL); AZT MPC4 CMY-6 EC1010 [20]: Y (key: X: MIC of less than 1 ng/mL; Y: MIC of 1 μg/mL to 10 μg/mL; Z: MIC of greater than 10 μg/mL)
